# Laboratory results: patent US20240287046A1, “COMPOUNDS AND RADIOLIGANDS FOR TARGETING NEUROTENSIN RECEPTOR AND USES THEREOF” (Full-Life Technologies HK Limited, priority 2022, published 2024)
# Legend:
# [1] = test system: ASPC-1 tumor-bearing mice; experiment: Biodistribution of radionuclide labeled complexes in ASPC-1 tumor-bearing mice; assay type: in vivo, BALB/c nude mice
# Protocol: (§1) The BALB/c nude mice (Charles River, Beijing) were utilized to establish the xenografted model for biodistribution study. All animal care and experimental procedure were performed by following the animal protocols approved by the ethics committee of China Institute of Radiation Protection.
# (§2) Briefly, each mouse was inoculated with approximately 4×10^6 ASPC-1 cells (human pancreatic cancer cell line) or HT-29 cells (human colorectal adenocarcinoma cell line) expressing human NTSR-1 by subcutaneous injection at rear flank. After inoculation, the xenografted tumors were allowed to grow for ˜2-4 weeks till the tumor weight reached to about 0.05 to 0.50 g (0.20 g in average).
# (§3) Biodistribution studies were performed by administrating the radionuclide labeled test compound at a dose of ˜30-50 μCi (100 μL in 0.9% NaCl, ˜1.11-1.85 MBq, with specific activity 30-250 μCi/nmol) to each animal through tail vein injection.
# (§4) At different time points after the administration, the mice treated with each compound were euthanized. The tissues and organs of the animals in each group were collected, excised, weighed, and analyzed in a PerkinElmer 2480 WIZARD2γ counter, and the percent injected dose (% ID) and % ID/g of each organ or tissue were calculated.
# HT-29 tumor-bearing mice = experiment: Biodistribution of radionuclide labeled complexes in HT-29 tumor-bearing mice; assay type: in vivo, BALB/c nude mice
# Protocol: as §1, §2, §3, §4
compound,measurement,setting,value
COc1cccc(OC)c1-c1cc(C(=O)NC2(C(=O)O)C3CC4CC(C3)CC2C4)nn1-c1ccc(N(CCCN(C)C)C(=O)COCCOCCNC(=O)CN2CCN(CC(=O)[O-])CCN(CC(=O)[O-])CCN(CC(=O)[O-])CC2)cc1C(C)C.[177Lu+3] (stereo not shown) [^177Lu-I-6],"tumor uptake relative to blood, liver and lung compared to ^177Lu—C5",[1]; 1 or 4 hours,significantly higher tumor uptake
same,uptake ratio Tumor/Blood,[1]; 1 h,33.3
same,uptake ratio Tumor/Kidney,[1]; 1 h,3.42
same,uptake ratio Tumor/Liver,[1]; 1 h,25.0
same,uptake ratio Tumor/Lung,[1]; 1 h,23.7
same,uptake ratio Tumor/Blood,[1]; 4 h,364
same,uptake ratio Tumor/Kidney,[1]; 4 h,5.70
same,uptake ratio Tumor/Liver,[1]; 4 h,25.9
same,uptake ratio Tumor/Lung,[1]; 4 h,79.3
same,% ID/g (1 h) Blood,"[1]; Blood, 1 h",0.38 ± 0.06 % ID/g
same,% ID/g (4 h) Blood,"[1]; Blood, 4 h",0.04 ± 0.01 % ID/g
same,% ID/g (1 h) Femur,"[1]; Femur, 1 h",0.12 ± 0.01 % ID/g
same,% ID/g (4 h) Femur,"[1]; Femur, 4 h",0.12 ± 0.09 % ID/g
same,% ID/g (1 h) Heart,"[1]; Heart, 1 h",0.22 ± 0.12 % ID/g
same,% ID/g (4 h) Heart,"[1]; Heart, 4 h",0.12 ± 0.03 % ID/g
same,% ID/g (1 h) Intestine,"[1]; Intestine, 1 h",0.77 ± 0.31 % ID/g
same,% ID/g (4 h) Intestine,"[1]; Intestine, 4 h",0.22 ± 0.06 % ID/g
same,% ID/g (1 h) Kidney,"[1]; Kidney, 1 h",3.71 ± 0.24 % ID/g
same,% ID/g (4 h) Kidney,"[1]; Kidney, 4 h",2.39 ± 0.37 % ID/g
same,% ID/g (1 h) Liver,"[1]; Liver, 1 h",0.51 ± 0.22 % ID/g
same,% ID/g (4 h) Liver,"[1]; Liver, 4 h",0.53 ± 0.16 % ID/g
same,% ID/g (1 h) Lung,"[1]; Lung, 1 h",0.54 ± 0.04 % ID/g
same,% ID/g (4 h) Lung,"[1]; Lung, 4 h",0.17 ± 0.08 % ID/g
same,% ID/g (1 h) Muscle,"[1]; Muscle, 1 h",0.06 ± 0 % ID/g
same,% ID/g (4 h) Muscle,"[1]; Muscle, 4 h",0.08 ± 0.02 % ID/g
same,% ID/g (1 h) Pancreas,"[1]; Pancreas, 1 h",0.11 ± 0.03 % ID/g
same,% ID/g (4 h) Pancreas,"[1]; Pancreas, 4 h",0.06 ± 0.02 % ID/g
same,% ID/g (1 h) Spleen,"[1]; Spleen, 1 h",0.09 ± 0.01 % ID/g
same,% ID/g (4 h) Spleen,"[1]; Spleen, 4 h",0.13 ± 0.03 % ID/g
same,% ID/g (1 h) Stomach,"[1]; Stomach, 1 h",0.27 ± 0.19 % ID/g
same,% ID/g (4 h) Stomach,"[1]; Stomach, 4 h",0.21 ± 0.05 % ID/g
same,% ID/g (1 h) Tumor,"[1]; Tumor, 1 h",12.71 ± 4.57 % ID/g
same,% ID/g (4 h) Tumor,"[1]; Tumor, 4 h",13.64 ± 2.5 % ID/g
same,% ID/g (1 h) Blood,"HT-29 tumor-bearing mice; Blood, 1 h",3.2 ± 1.07 % ID/g
same,% ID/g (4 h) Blood,"HT-29 tumor-bearing mice; Blood, 4 h",0.08 ± 0.03 % ID/g
same,% ID/g (1 h) Femur,"HT-29 tumor-bearing mice; Femur, 1 h",0.68 ± 0.18 % ID/g
same,% ID/g (4 h) Femur,"HT-29 tumor-bearing mice; Femur, 4 h",0.2 ± 0.03 % ID/g
same,% ID/g (1 h) Heart,"HT-29 tumor-bearing mice; Heart, 1 h",1.17 ± 0.24 % ID/g
same,% ID/g (4 h) Heart,"HT-29 tumor-bearing mice; Heart, 4 h",0.12 ± 0.03 % ID/g
same,% ID/g (1 h) Intestine,"HT-29 tumor-bearing mice; Intestine, 1 h",1.21 ± 0.06 % ID/g
same,% ID/g (4 h) Intestine,"HT-29 tumor-bearing mice; Intestine, 4 h",0.27 ± 0.07 % ID/g
same,% ID/g (1 h) Kidney,"HT-29 tumor-bearing mice; Kidney, 1 h",5.9 ± 4.85 % ID/g
same,% ID/g (4 h) Kidney,"HT-29 tumor-bearing mice; Kidney, 4 h",5.14 ± 2.21 % ID/g
same,% ID/g (1 h) Liver,"HT-29 tumor-bearing mice; Liver, 1 h",1.28 ± 0.47 % ID/g
same,% ID/g (4 h) Liver,"HT-29 tumor-bearing mice; Liver, 4 h",0.83 ± 0.27 % ID/g
same,% ID/g (1 h) Lung,"HT-29 tumor-bearing mice; Lung, 1 h",1.66 ± 1.17 % ID/g
same,% ID/g (4 h) Lung,"HT-29 tumor-bearing mice; Lung, 4 h",0.27 ± 0.04 % ID/g
same,% ID/g (1 h) Muscle,"HT-29 tumor-bearing mice; Muscle, 1 h",0.57 ± 0.15 % ID/g
same,% ID/g (4 h) Muscle,"HT-29 tumor-bearing mice; Muscle, 4 h",0.09 ± 0.04 % ID/g
same,% ID/g (1 h) Pancreas,"HT-29 tumor-bearing mice; Pancreas, 1 h",0.62 ± 0.25 % ID/g
same,% ID/g (4 h) Pancreas,"HT-29 tumor-bearing mice; Pancreas, 4 h",0.14 ± 0.02 % ID/g
same,% ID/g (1 h) Spleen,"HT-29 tumor-bearing mice; Spleen, 1 h",0.45 ± 0.19 % ID/g
same,% ID/g (4 h) Spleen,"HT-29 tumor-bearing mice; Spleen, 4 h",0.26 ± 0.1 % ID/g
same,% ID/g (1 h) Stomach,"HT-29 tumor-bearing mice; Stomach, 1 h",0.69 ± 0.23 % ID/g
same,% ID/g (4 h) Stomach,"HT-29 tumor-bearing mice; Stomach, 4 h",0.32 ± 0.2 % ID/g
same,% ID/g (1 h) Tumor,"HT-29 tumor-bearing mice; Tumor, 1 h",10.31 ± 4.72 % ID/g
same,% ID/g (4 h) Tumor,"HT-29 tumor-bearing mice; Tumor, 4 h",7.53 ± 3.52 % ID/g
COc1cccc(OC)c1-c1cc(C(=O)NC2(C(=O)O)C3CC4CC(C3)CC2C4)nn1-c1ccc(NCCOCCOCCNC(=O)CN2CCN(CC(=O)[O-])CCN(CC(=O)[O-])CCN(CC(=O)[O-])CC2)cc1C(C)C.[177Lu+3] (stereo not shown) [^177Lu-I-10],% ID/g (4 h) Blood,"[1]; Blood, 4 h",0.93 ± 0.29 % ID/g
same,% ID/g (24 h) Blood,"[1]; Blood, 24 h",0.04 ± 0.00 % ID/g
same,% ID/g (72 h) Blood,"[1]; Blood, 72 h",0.01 ± 0.00 % ID/g
same,% ID/g (4 h) Femur,"[1]; Femur, 4 h",0.23 ± 0.06 % ID/g
same,% ID/g (24 h) Femur,"[1]; Femur, 24 h",0.04 ± 0.02 % ID/g
same,% ID/g (72 h) Femur,"[1]; Femur, 72 h",0.02 ± 0 % ID/g
same,% ID/g (4 h) Heart,"[1]; Heart, 4 h",0.41 ± 0.13 % ID/g
same,% ID/g (24 h) Heart,"[1]; Heart, 24 h",0.04 ± 0.02 % ID/g
same,% ID/g (72 h) Heart,"[1]; Heart, 72 h",0.01 ± 0.01 % ID/g
same,% ID/g (4 h) Intestine,"[1]; Intestine, 4 h",1.86 ± 0.58 % ID/g
same,% ID/g (24 h) Intestine,"[1]; Intestine, 24 h",0.14 ± 0.01 % ID/g
same,% ID/g (72 h) Intestine,"[1]; Intestine, 72 h",0.04 ± 0.01 % ID/g
same,% ID/g (4 h) Kidney,"[1]; Kidney, 4 h",3.02 ± 0.39 % ID/g
same,% ID/g (24 h) Kidney,"[1]; Kidney, 24 h",0.31 ± 0.11 % ID/g
same,% ID/g (72 h) Kidney,"[1]; Kidney, 72 h",0.04 ± 0.01 % ID/g
same,% ID/g (4 h) Liver,"[1]; Liver, 4 h",0.96 ± 0.4 % ID/g
same,% ID/g (24 h) Liver,"[1]; Liver, 24 h",0.14 ± 0.01 % ID/g
same,% ID/g (72 h) Liver,"[1]; Liver, 72 h",0.06 ± 0.02 % ID/g
same,% ID/g (4 h) Lung,"[1]; Lung, 4 h",0.74 ± 0.72 % ID/g
same,% ID/g (24 h) Lung,"[1]; Lung, 24 h",0.4 ± 0.26 % ID/g
same,% ID/g (72 h) Lung,"[1]; Lung, 72 h",0.05 ± 0.03 % ID/g
same,% ID/g (4 h) Muscle,"[1]; Muscle, 4 h",0.13 ± 0.12 % ID/g
same,% ID/g (24 h) Muscle,"[1]; Muscle, 24 h",0.01 ± 0.01 % ID/g
same,% ID/g (72 h) Muscle,"[1]; Muscle, 72 h",0.011 ± 0.01 % ID/g
same,% ID/g (4 h) Pancreas,"[1]; Pancreas, 4 h",0.07 ± 0.01 % ID/g
same,% ID/g (24 h) Pancreas,"[1]; Pancreas, 24 h",0.04 ± 0.02 % ID/g
same,% ID/g (72 h) Pancreas,"[1]; Pancreas, 72 h",0.01 ± 0 % ID/g
same,% ID/g (4 h) Spleen,"[1]; Spleen, 4 h",0.3 ± 0.14 % ID/g
same,% ID/g (24 h) Spleen,"[1]; Spleen, 24 h",0.12 ± 0.05 % ID/g
same,% ID/g (72 h) Spleen,"[1]; Spleen, 72 h",0.02 ± 0.01 % ID/g
same,% ID/g (4 h) Stomach,"[1]; Stomach, 4 h",1.88 ± 0.59 % ID/g
same,% ID/g (24 h) Stomach,"[1]; Stomach, 24 h",0.1 ± 0.07 % ID/g
same,% ID/g (72 h) Stomach,"[1]; Stomach, 72 h",0.04 ± 0.01 % ID/g
same,% ID/g (4 h) Tumor,"[1]; Tumor, 4 h",17.97 ± 11.04 % ID/g
same,% ID/g (24 h) Tumor,"[1]; Tumor, 24 h",12.27 ± 7.59 % ID/g
same,% ID/g (72 h) Tumor,"[1]; Tumor, 72 h",4.24 ± 2.71 % ID/g
same,ratio of tumor AUC verse normal organ AUC,[1]; compared to ^177Lu—C2,significantly improved
